“Also recorded” adds a separate entry of the source. Marks after values point to notes of the source that are not given here.
Legend:
[1] = tested on: Colo 320/MDR-LRP human colonic adenocarcinoma cell line; experiment: Cytotoxicity (MTT) on resistant Colo 320 cells; type: cell-based; settings: for IC50: Homo sapiens, COLO 320, 24 h, MTT, read-out: Colo 320 (IC50 µM) Mean; for SI MRC-5/Colo 320: ratio IC50 non-tumour cells / IC50 cancer cells
In short: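 10^4 cells/well in RPMI-1640 were exposed to two-fold serial dilutions (0.19–100 μM) for 24 h at 37 °C. MTT was added for 4 h, then SDS/HCl overnight, with OD read at 540 nm (ref. 630 nm). IC50 = dose giving 50% growth reduction, from non-linear regression of triplicates.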

[2] = tested on: HeLa (cervical adenocarcinoma); experiment: Cytotoxicity on HeLa cells; type: cell-based; settings: Homo sapiens
B16 (skin melanoma) = experiment: Cytotoxicity on B16 cells; type: cell-based, murine; settings: Mus musculus
[3] = tested on: resistant Colo 320 colon adenocarcinoma cells expressing the ABCB1 transporter; experiment: Checkerboard combination assay with doxorubicin; type: cell-based, human; settings: for Interaction with doxorubicin: in at least one of the ratios tested

| Structure (SMILES) | IC50 [1] | SI MRC-5/Colo 320 [1] | IC50 [2] | IC50 (B16 (skin melanoma)) | Interaction with doxorubicin [3] | Type of Interaction ([3]; ratio 1.2:1, starting conc. 10 µM) | Type of Interaction ([3]; ratio 2.4:1, starting conc. 10 µM) | Type of Interaction ([3]; ratio 4.8:1, starting conc. 10 µM) | Type of Interaction ([3]; ratio 9.6:1, starting conc. 10 µM) | Type of Interaction ([3]; ratio 19.2:1, starting conc. 10 µM) | Type of Interaction ([3]; ratio 38.4:1, starting conc. 10 µM) | Type of Interaction ([3]; ratio 0.9:1, starting conc. 8 µM) | Type of Interaction ([3]; ratio 1.8:1, starting conc. 8 µM) | Type of Interaction ([3]; ratio 3.6:1, starting conc. 8 µM) | Type of Interaction ([3]; ratio 7.2:1, starting conc. 8 µM) | Type of Interaction ([3]; ratio 14.4:1, starting conc. 8 µM) | Type of Interaction ([3]; ratio 28.8:1, starting conc. 8 µM) |
| --- | --- | --- | --- | --- | --- | --- | --- | --- | --- | --- | --- | --- | --- | --- | --- | --- | --- |
| N#CC[Se]C(=O)c1ccccc1C(F)(F)F [N4, Se-(Cyanomethyl) 2-(Trifluoromethyl)benzoselenoate] | 5.57 µM | >6 * | 2.5 µM | 1.4 µM | synergistic manner; also recorded: synergistic effect | Antagonism | Strong antagonism | Moderate synergism | Additive effect | Slight antagonism | Moderate antagonism |  |  |  |  |  |  |
| N#CC[Se]C(=O)c1cc(C(F)(F)F)cc(C(F)(F)F)c1 [N7, Se-(Cyanomethyl) 3,5-Bis(trifluoromethyl)benzoselenoate] | 3.78 µM | >6 * | 2.1 µM | 1.6 µM | synergistic manner; also recorded: synergistic effect |  |  |  |  |  |  | Antagonism | Strong antagonism | Slight synergism | Antagonism | Antagonism | Additive effect |

Source: paper PMC8465942, “Cyano- and Ketone-Containing Selenoesters as Multi-Target Compounds against Resistant Cancers” (Cancers, 2021)
